Measured values published in patent US20260021137A1, “COMPOSITIONS FOR TREATING COLITIS AND/OR PREVENTING COLON CANCER” (Purdue Research Foundation, priority 2020, published 2026).
Marks after values point to notes of the source that are not given here.

Assays:
[1] = tested on: gut microbiota; test: Gut microbiota analysis by 16S rRNA gene sequencing of feces; assay type: in vivo, male Balb/c mice; conditions: for modulatory effect on gut microbes as δTE and δTE-13′: unpublished data by Liu and Jiang
Procedure: DNAs from ^˜30-40 mg fecal samples were isolated using FASTDNA™ SPIN kit for isolating DNA from soil (MP Biomedicals, Solon, Ohio). The quality of the DNAs was assessed by NanoDrop One (260/280 OD ratio) (Thermo Fisher Scientific. Weltham, Mass.) and 0.8% agarose gel electrophoresis. The DNAs were stained with Hoechst 33258 dye and quantities were determined using a NanoDrop 3300 fluorospectrometer (Thermo Fisher Scientific. Weltham, Mass.).
DNA templates (10 ng) were used for two-step polymerase chain reactions (PCRs) using Q5 High Fidelity DNA Polymerase to minimize errors (New England Biolabs, Ipswich, Mass.). The first PCR reaction is to amplify the 16S rRNA V3 and V4 region (^˜460 bp), with forward primer (343-357: 5′ TAC CGR AGG CAG CAG 3′), and a reverse primer (804-790: 5′ CTA CCR GGG TAT CTA ATCC 3′). which is based on primer accuracy and coverage of phylogenetic information that has been determined for short sequencing reads. Four degenerate bases were added to the 1st cycle forward primers to maximize detected microbial diversity and improve the base-calling accuracy of sequencing. The second PCR is to tag the amplicons with unique barcodes using 8-bp tagged forward and reverse primers (Illumina) (support.illumina.com). The number of PCR cycles were 15 in the first step and 5 in the second step to minimize formation of PCR artifacts. After each PCR, unincorporated primers and nucleotides were removed from PCR amplicons using Agencourt AMPure XP kit (Beckman Coulter). The PCR products were evaluated by 1.2% agarose gel and quantified using a NanoDrop 3300 fluorospectrometer after staining with Quantifluor dsDNA Assay Kit (Promega, Madison, Wis.). Amplicons from each sample were combined in equimolar quantities for 250 bp pair-end sequencing using a MiSeq system (Illumina, San Diego, Calif.).
The raw sequencing data were processed on the QIIME2 platform. The quality of the sequences was checked and bases with low-quality scores (Q less than 30) were trimmed. After denoising, merging and chimeric-checking using DADA2, amplicon sequence variants (ASVs) were aligned with the SILVA 132 marker gene reference database. After rarefaction, microbial alpha diversities were computed using observed OTUs, Faith Phylogenetic Diversity (PD), Piclou evenness and Shannon indices. For beta diversities, principal coordinate analysis (PCoA) was performed using Unweighted UniFrac, Weighted UniFrac, Jaccard and Bray Curtis distance matrices. Permutational (non-parametric) multivariate statistic (perMANOVA) and permutation analysis of multivariate dispersions (PERMDISP) were used to determine beta diversity significance. To identify differential abundant taxa, we performed analysis of composition of microbiomes (ANCOM) followed by Kruskal-Wallis to determine pair-wise significance. ANCOM takes into account the compositional nature of the dataset and compares absolute abundance in the community. Furthermore, we used linear discriminant analysis (LDA) effect size (LEfSe) to identify microbial taxa that are enriched by the dietary treatments. The cutoff for LDA was set at 3.5. In addition, canonical correspondence analysis (CCA) in PAST3 (Paleontological statistics) was used to determine correlation between relative abundances (at the species level) of gut microbial communities and environmental variables including AOM/DSS treatment, δTE, δTE-13′, ratio of colon length/weight (L/W) and large-size tumors. Significance of the model for the correlations was calculated using a Monte Carlo test with 999 permutations.
Tumor multiplicity and log transformed tumor area were analyzed by Kruskal-Wallis followed by Mann-Whitney test. Vitamin E and metabolites were compared using Student's t test. For cytokine data, Mann-Whitney test was used to compare two groups including AD vs. non-AD, AD vs. δTE, and AD vs. δTE-13′. PAST 3.24 was used for analysis of Spearman correlation among cytokines and multiple factors. […]

[2] = tested on: AOM/DSS-induced colon tumorigenesis; test: AOM/DSS-induced colon tumorigenesis in mice; assay type: in vivo, male Balb/c mice; conditions: AOM/DSS-treated mice; δTE/γTE (8/1) 0.035% diet or δTE-13′ 0.04% diet
Procedure: FIG. 1 illustrates (A) The chemical structures of δTE, γTE and δTE-13′; (B) Metabolism of δTE and δTE-13′; and (C) The study design of AOM/DSS model in mice-Six-seven-week old male Balb/c mice were i.p. injected with AOM at 9.5 mg/kg body weight. A week later, AOM-injected mice were randomized into AIN-93G (control), δTE-supplemented and δTE-13′-supplemented groups. Meanwhile, mice were given 1.5% DSS in drinking water for 1 week. The DSS cycle was repeated after a two-week interval.
δTE-13′ (>92%) used in animal studies was isolated from Garcinia kola seeds based on published procedures. See Jang Y, Park N Y, Rostgaard-Hansen A L, Huang J, Jiang Q. Vitamin E metabolite 13′-carboxychromanols inhibit pro-inflammatory enzymes, induce apoptosis and autophagy in human cancer cells by modulating sphingolipids and suppress colon tumor development in mice. Free Radical Biology & Medicine. 2016;95:190-9. Azoxymethane (AOM) was purchased from Sigma and dextran sodium sulfate (DSS, Mw36,000-50,000 Da) was from MP Biochemicals (Solon, OH). δTE/γTE (8/1) was a gift from American River Nutrition (Hadley, MA). AIN-93G diet was used as the control diet. […]
The animal use protocol was approved by the Animal Care and Use Committee at Purdue University. […] During DSS treatment, we evaluated colitis severity by monitoring body weight, food intake, rectal bleeding and stool consistency. Clinical colitis scores were quantified as follows: bleeding, 0=no blood, 1=feces with blood less than 50%, 2=feces with blood more than 50% but less than 100%, and 3=feces with full blood; stool softness, 0=hard, 1=a bit soft, 2=soft, and 3=very soft.
During tissue harvest, colons were removed, rinsed with cold PBS, cut open longitudinally, and macroscopically examined. The size and number of macroscopic tumors were measured and recorded. […]
Tumor multiplicity and log transformed tumor area were analyzed by Kruskal-Wallis followed by Mann-Whitney test. […]

[3] = tested on: GM-CSF; test: Multiplex cytokine assay in colon homogenates: GM-CSF; assay type: in vivo, male Balb/c mice; conditions: AOM/DSS-treated mice, vs control diet
Procedure: (§1) Colon tissues were homogenized with POLYTRON® homogenizer (Kinematica AG, Switzerland) on ice in the lysis buffer consisting of 150 mM NaCl, 1 mM EDTA (pH 8.0), 20 mM Tris (pH 7.5), 0.5% Tween 20, 10 uM indomethacin (Cayman), and 1× protease inhibitor cocktail (Sigma). Protein concentrations in tissue homogenates were quantified by BCA assay. The concentrations of selected cytokines were analyzed using a Mouse Cytokine Array Proinflammatory Focused 10-Plex Discovery Assay by Eve Technologies (Calgary, AB Canada). The 10-Plex Discovery Assay includes IFNγ, IL-1β, GM-CSF, IL-2, IL-4, IL-6, IL-10, IL-12p70, MCP-1 and TNFα.
(§2) Tumor multiplicity and log transformed tumor area were analyzed by Kruskal-Wallis followed by Mann-Whitney test. Vitamin E and metabolites were compared using Student's t test. For cytokine data, Mann-Whitney test was used to compare two groups including AD vs. non-AD, AD vs. δTE, and AD vs. δTE-13′. PAST 3.24 was used for analysis of Spearman correlation among cytokines and multiple factors. For correlation analysis of gut microbiota and δTE-13′, Spearman correlation tests were performed using RStudio 1.1.456 and adjusted with Benjamini-Hochberg correction to control the false discovery rate for multiple testing. Other statistical analyses are described in figure captions.

[4] = tested on: MCP-1; test: Multiplex cytokine assay in colon homogenates: MCP-1; assay type: in vivo, male Balb/c mice; conditions: AOM/DSS-treated mice, vs control diet
Procedure: as §1, §2

[5] = Body weight, food intake and organ weight during supplementation; assay type: in vivo, male Balb/c mice; conditions: supplementation for more than two months
Procedure: The animal use protocol was approved by the Animal Care and Use Committee at Purdue University. After one-weck adaptation, 6-7 weck old male Balb/c mice from Harlan, (Indianapolis, IN) were i.p. injected with AOM at 9.5 mg/kg body weight. A week later, AOM-injected mice were randomized into AIN-93G (control), δTE-supplemented and δTE-13′-supplemented groups. Meanwhile, mice were given 1.5% DSS in drinking water for 1 week. The DSS cycle was repeated after a two-week interval (design outlined in FIG. 1C). During DSS treatment, we evaluated colitis severity by monitoring body weight, food intake, rectal bleeding and stool consistency. Clinical colitis scores were quantified as follows: bleeding, 0=no blood, 1=feces with blood less than 50%, 2=feces with blood more than 50% but less than 100%, and 3=feces with full blood; stool softness, 0=hard, 1=a bit soft, 2=soft, and 3=very soft.

[6] = Concentrations of vitamin E forms and metabolites in plasma and feces; assay type: in vivo
Procedure: Vitamin E forms were extracted as previously described. Briefly, plasma tocopherols and metabolites were extracted using a mixture of methanol/hexane (1/2,v/v) in the presence of butylated hydroxytoluene (BHT; 0.8 mM) and ascorbate (0.2 mg/ml). […] The Journal of Nutritional Biochemistry. 2009;20:894-900. For fecal samples, ˜30 mg feces were smashed and homogenized in 2 ml methanol with BHT (0.8 mM) and ascorbate (0.2 mg/ml). After brief centrifugation, a 1.4 ml methanol layer was obtained and added with 200 μl of PBS, and extracted by 5 ml hexane. For plasma and fecal samples, the hexane and methanol layer were used for quantification of vitamin E forms and metabolites, respectively.
Different vitamin E forms were separated on a 150×4.6 mm, 5 μm SUPELCOSIL™ LC-18-DB column (Supelco, Bellefonte, PA), and eluted with 95/5 (v/v) methanol/0.1M lithium acetate (final 25 mM, pH 4.75) at a flow rate of 1.3 ml/min. Tocopherols and tocotrienols were monitored by coulometric detection (Model Coulochem II, ESA Inc., Chelmsford, MA) at 300 (upstream) and 500 mV (down-stream electrode) using a Model 5011 analytical cell
The detailed LC-MS/MS method for analyzing vitamin E metabolites has been previously reported. See Jiang Q, Xu T, Huang J, Jannasch AS, Cooper B, Yang C. Analysis of vitamin E metabolites including carboxychromanols and sulfated derivatives using LC/MS/MS. J Lipid Res. 2015;56:2217-25. Briefly, vitamin E metabolites were quantified based on external standards with internal standards for correction of injection and extraction. The LC-MS/MS analysis was done with an Agilent1200 liquid chromatography system coupled to an Agilent 6460 QQQ mass spectrometer equipped with a jet stream electrospray ionization (ESI) source (Santa Clara, CA). The chromatography utilized an Atlantis dC18 column (2.1×150 mm, 3 μm) from Water's Corporation (Milford, MA). Buffer A and B consisted of acetonitrile/ethanol/water (165/135/700, v/v/v) and acetonitrile/ethanol/water (539/441/20, v/v/v), respectively. The LC gradient ran at 0.3 ml/min as follows: 0-1 min, 0% B; at 30 min, 99% B; at 35 min, 99% B; at 37 min, 0% B. Negative polarity ESI was used with gas temperature of 325° C., gas flow at 10 L/min, nebulizer pressure at 30 psi, sheath gas temperature of 250° C., sheath gas flow at 7 L/min, capillary voltage at 4000V, nozzle voltage at 1500 V, and an electron multiplier voltage of −300 V. All data were evaluated with Agilent MassHunter Qualitative Analysis software, versionB.01.06.

[7] = tested on: AOM/DSS-induced colon tumorigenesis; conditions: 0.022% diet; previous study; cited from earlier work
[8] = ANCOM, compared with control diet in AD-treated or healthy mice
[9] = LEfSe, LDA cutoff 3.5, AOM/DSS-treated mice
[10] = fecal microbiota, AOM/DSS-treated mice, mean ± SEM

For `Cc1c(C)c2c(c(C)c1O)CC[C@@](C)(CCC[C@H](C)CCC[C@H](C)CCCC(C)C)O2` [αT, α-tocopherol, reference compound], the “modulatory effect on gut microbes as δTE and δTE-13′” value [1] was “do not share the same modulatory effect”.

In the case of `Cc1c(O)cc2c(c1C)O[C@](C)(CCC[C@H](C)CCC[C@H](C)CCCC(C)C)CC2` [γT, γ-tocopherol, reference compound], the “modulatory effect on gut microbes as δTE and δTE-13′” value [1] is reported as “do not share the same modulatory effect”.

In the case of `C/C(=C\CC/C(C)=C/CCC1(C)CCc2cc(O)cc(C)c2O1)CC/C=C(\C)C(=O)O` (centres unmarked) [δTE-13′, δTE-13′-carboxychromanol], the “decrease of large size (>2 mm^2) polyps compared with control diet” value [2] is reported as 55%, the “decrease of total polyps (total tumor multiplicity) compared with control diet” value [2] is reported as 25% and the “decrease of tumor surface area” value [2] is reported as 38%. For the same molecule, the “AOM/DSS-induced GM-CSF in colon homogenates” value [3] was “significant reduction”, the “AOM/DSS-induced MCP-1 in colon homogenates” value [4] was “significant reduction” and the “effect on animals' body weight” value [5] was “did not affect”. The “effect on food intake” value [5] was “did not affect”, the “effect on organ weight” value [5] was “did not affect” and the “AOM/DSS-associated decrease of genus Roseburia” value ([1]; ANCOM, relative abundance) was “partially reversed”. The “relative abundance of Streptococccaceae family” value [1, 8] was “significantly elevated”, the “relative abundance of genus Lactococcus” value [1, 8] was “significantly elevated” and the “Bacteroides (LEfSe)” value [1, 9] was “enriched”. The “Parabacteroides goldsteinii CL02T12C30 (LEfSe)” value [1, 9] was “enriched”, the “ratio of Firmicutes to Bacteroidetes in feces” value ([1]; compared with healthy controls) was “appeared to decrease” and the “alpha diversity: Evenness” value [1, 10] was 0.81 ± 0.01^b. For the same molecule, the “alpha diversity: Faith PD” value [1, 10] was 10.42 ± 0.24^a, the “alpha diversity: Observed OTU” value [1, 10] was 177.06 ± 8.75^a and the “alpha diversity: Shannon” value [1, 10] was 6.05 ± 0.07^a. The “parental compound in the plasma” value ([6]; δTE-13′ supplementation) was “did not result in detectable amount”, the “δTE-13′ with 3 DB (the parental compound) in feces” value ([6]; δTE-13′ supplementation) was “increased” and the “fecal δTE-13′ with 2 DB relative to that from δTE” value ([6]; δTE-13′ vs δTE supplementation) was “significantly higher”. For the same molecule, the “plasma concentrations of metabolites relative to those from δTE” value ([6]; δTE-13′ vs δTE supplementation) was “about twice as much”, the large-size tumor multiplicity [7] was “significantly suppressed” and the total tumor multiplicity [7] was “significantly suppressed”.
